Measured values published in ChEMBL document CHEMBL1201862, “PubChem BioAssay data set” (2004).
Activity calls are given as the source filed them.

Columns and labels:
[1] = biological target: T1, DNA repair protein RAD52 homolog (Homo sapiens, UniProt P43351); assay type: functional, biochemical
T1 sequence (P43351 whole entry): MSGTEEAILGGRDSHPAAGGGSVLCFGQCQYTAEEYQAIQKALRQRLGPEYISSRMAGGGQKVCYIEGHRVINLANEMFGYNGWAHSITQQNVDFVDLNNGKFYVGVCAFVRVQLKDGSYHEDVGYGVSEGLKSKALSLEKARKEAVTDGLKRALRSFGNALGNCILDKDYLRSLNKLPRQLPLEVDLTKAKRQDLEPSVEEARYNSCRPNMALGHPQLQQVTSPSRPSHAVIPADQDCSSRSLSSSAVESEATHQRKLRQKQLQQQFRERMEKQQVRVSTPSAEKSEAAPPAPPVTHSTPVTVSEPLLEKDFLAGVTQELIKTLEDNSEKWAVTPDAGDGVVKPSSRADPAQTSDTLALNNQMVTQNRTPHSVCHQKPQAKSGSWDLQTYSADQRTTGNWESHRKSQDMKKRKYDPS

[2] = biological target: T2, Disintegrin and metalloproteinase domain-containing protein 17 (Homo sapiens, UniProt P78536); test: exosite inhibitors of ADAM17, dose response, biochemical (AID 743260)
[3] = inhibition of ADAM10 peptide cleavage – biochemical, FRET peptide substrate, recombinant human ADAM10, selectivity assay for ADAM17 exosite inhibitor project, dose response (AID 743259);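 also: ADAM10 enzyme cleaving a FRET peptide substrate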
[4] = cells; assay type: functional, cell-based
[5] = biological target: T3, Trace amine-associated receptor 1 (Homo sapiens, UniProt Q96RJ0); test: Fluorescence-based cell-based high throughput dose response assay to identify agonists of the human trace amine associated receptor 1 (TAAR1).; assay type: functional
T3 sequence (Q96RJ0 whole entry): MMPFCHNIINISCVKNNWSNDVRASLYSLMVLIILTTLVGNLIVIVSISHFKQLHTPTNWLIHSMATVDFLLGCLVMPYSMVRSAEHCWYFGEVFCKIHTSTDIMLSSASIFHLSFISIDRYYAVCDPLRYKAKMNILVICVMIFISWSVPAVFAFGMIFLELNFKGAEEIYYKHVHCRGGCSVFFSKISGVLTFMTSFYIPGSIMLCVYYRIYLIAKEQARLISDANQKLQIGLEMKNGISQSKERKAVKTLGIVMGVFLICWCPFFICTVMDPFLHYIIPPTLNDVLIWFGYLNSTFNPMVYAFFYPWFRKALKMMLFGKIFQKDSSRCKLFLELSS

[6] = biological target: T3, Trace amine-associated receptor 1; test: Counterscreen for agonists of the human trace amine associated receptor 1 (hTAAR1): Fluorescence-based cell-based high throughput dose response assay to identify hTAAR1 agonist that also desensitize TAAR1 receptor response.; assay type: functional
[7] = cells; assay type: functional, cell-based; remark: listed apart in the source
[8] = biological target: Luciferin 4-monooxygenase (Photinus pyralis, UniProt P08659); test: inhibition of purified Photinus pyralis luciferase – biochemical, luminescence, dose response (AID 1891)
[9] = Luminescence Cell-Based Dose Confirmation HTS to Identify Inhibitors of Platelet Dense Granule Release. [Related pubchem assays: 1663 (Primary HTS), 1678 (Summary of Project)]; assay type: functional
[10] = biological target: Major prion protein (Homo sapiens, UniProt P04156); assay type: functional, cell-based
[11] = cells
[12] = biological target: NAD-dependent protein deacylase sirtuin-5, mitochondrial (Homo sapiens, UniProt Q9NXA8); test: sirtuin-5 deacylation blockers, concentration series – biochemical, fluorescence imaging, cherry-pick, set 5, dose response (AID 720591);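 also: desuccinylation of succinyl peptide AMC substrate read as fluorescence after trypsin release; potency of inhibitors that lower fluorescence and may act on trypsin instead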
[13] = viability of PTEN-deleted HCT116 cells – cell-based, HCT116 PTEN knockout, dose response (AID 1047); assay type: functional;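 also: HCT116 colon tumor cells with PTEN knocked out; cells exposed to compound for 60 hours before readout; potency for loss of cell viability measured by luminescence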
[14] = viability of HCT116 lacking mutant beta-catenin – cell-based, human colon tumor, dose response (AID 1045); assay type: functional;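 also: HCT116 colon tumor cells with beta catenin knocked out; cells exposed to compound for 60 hours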
[15] = biological target: T2, Disintegrin and metalloproteinase domain-containing protein 17; test: inhibition of ADAM17 substrate cleavage – biochemical, quenched FRET substrate, counter-screen for ADAM10 exosite inhibitor project, dose response (AID 743253)
[16] = biological target: T4, fMet-Leu-Phe receptor (Homo sapiens, UniProt P21462); test: formyl peptide receptor binders – dose response (AID 519); assay type: functional
T4 sequence (P21462 whole entry): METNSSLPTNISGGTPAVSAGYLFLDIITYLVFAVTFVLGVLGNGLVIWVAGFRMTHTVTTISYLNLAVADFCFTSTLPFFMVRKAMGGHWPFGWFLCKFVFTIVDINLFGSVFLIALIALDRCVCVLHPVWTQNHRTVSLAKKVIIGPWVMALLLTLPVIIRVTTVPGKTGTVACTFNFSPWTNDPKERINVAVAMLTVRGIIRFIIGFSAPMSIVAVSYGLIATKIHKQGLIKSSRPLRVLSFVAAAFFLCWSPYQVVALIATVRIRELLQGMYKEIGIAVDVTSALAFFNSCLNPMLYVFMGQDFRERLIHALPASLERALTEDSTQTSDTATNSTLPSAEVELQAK

[17] = cells; assay type: functional, cell-based; remark: listed apart in the source
[18] = biological target: T5, Nuclear receptor subfamily 0 group B member 1 (Homo sapiens, UniProt P51843); assay type: functional, cell-based;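 also: HEK293T cells transfected with SF-1 and DAX-1 plus StAR promoter luciferase reporter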
T5 sequence (P51843 whole entry): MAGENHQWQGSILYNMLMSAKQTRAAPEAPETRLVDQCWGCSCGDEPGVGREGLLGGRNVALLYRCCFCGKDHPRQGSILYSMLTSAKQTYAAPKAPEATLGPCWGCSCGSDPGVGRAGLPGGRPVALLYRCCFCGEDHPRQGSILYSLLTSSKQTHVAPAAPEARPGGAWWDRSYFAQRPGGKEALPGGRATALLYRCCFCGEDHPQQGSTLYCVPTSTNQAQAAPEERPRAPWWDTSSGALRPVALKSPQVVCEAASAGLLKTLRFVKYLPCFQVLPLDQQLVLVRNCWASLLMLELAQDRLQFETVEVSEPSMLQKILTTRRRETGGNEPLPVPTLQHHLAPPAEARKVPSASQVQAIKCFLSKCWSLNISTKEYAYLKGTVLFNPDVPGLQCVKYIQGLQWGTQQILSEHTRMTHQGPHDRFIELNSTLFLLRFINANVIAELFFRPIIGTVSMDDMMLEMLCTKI

[19] = Luminescence Cell-Based Dose Retest to Confirm Inhibitors of Cancer Stem Cells. [Related pubchem assays (depositor defined):AID2717, AID2721]; assay type: functional; conditions: Homo sapiens
[20] = tested on: H9c2; test: cells; assay type: functional, cell-based; conditions: Rattus norvegicus, H9c2, Myocardium;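 also: confirmatory concentration-response retest of ultra-high-throughput screening hits for modulation of myocardial damage; cell death induced by hydrogen peroxide oxidative stress; compound pretreatment for 60 min then peroxide exposure for 2 h; potency is for protecting the cells against peroxide damage rather than for killing them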
[21] = A549 cell cytotoxicity, dose response, cytotoxicity control, plate reader, cherry-pick, antagonist series (AID 743412); assay type: functional, cell-based
[22] = toxicity toward HepG2 liver cells – cell-based, plate reader, cherry-pick, antagonist series, cytotoxicity control, dose response (AID 743416); assay type: functional
[23] = blockers of bursicon-stimulated LGR2 cAMP reporter – cell-based, HEK293, CRE-luciferase reporter, cherry pick, set 2, dose response (AID 743343); assay type: functional;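 also: transfected cells were stimulated with diluted bursicon conditioned medium after compound addition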
[24] = blockade of melanocortin 4 receptor signaling – cell-based, plate reader, cherry pick, counter-screen for LGR2 antagonist project, dose response (AID 743444); assay type: functional;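 also: transfected HEK 293 cells stimulated with alpha-MSH peptide; potency of inhibitors of the alpha-MSH evoked signal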
[25] = viability loss in HEK293 cells – cell-based, plate reader, cherry-picked samples, cytotoxicity control, dose response (AID 743446); assay type: functional
[26] = biological target: Beta-lactamase (Salmonella choleraesuis (strain SC-B67), UniProt Q5J463); test: Epi-absorbance-based counterscreen for selective VIM-2 inhibitors: dose response biochemical high throughput screening assay to identify inhibitors of TEM-1 serine-beta-lactamase.
[27] = biological target: T6, Beta-lactamase (Pseudomonas aeruginosa, UniProt Q79MP6); test: inhibition of IMP-1 beta-lactamase activity – biochemical, epi-absorbance, selectivity assay for VIM-2 inhibitor project, dose response (AID 1920)
[28] = biological target: T6, Beta-lactamase; test: […] counterscreen for selective VIM-2 inhibitors: dose response biochemical high throughput screening assay to identify inhibitors of IMP-1 metallo-beta-lactamase.
[29] = biological target: Cytochrome P450 2C19 (Homo sapiens, UniProt P33261); test: Cytochrome panel assay with activity outcomes. Panel member name: p450-cyp2c19 Compounds with AC50 equal or less than 10 uM are considered active; assay type: functional; conditions: read-out: AC50
[30] = biological target: T7, Cytochrome P450 1A2 (Homo sapiens, UniProt P05177);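 also: PubChem cytochrome P450 panel assay, CYP1A2 panel member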
T7 sequence (P05177 whole entry): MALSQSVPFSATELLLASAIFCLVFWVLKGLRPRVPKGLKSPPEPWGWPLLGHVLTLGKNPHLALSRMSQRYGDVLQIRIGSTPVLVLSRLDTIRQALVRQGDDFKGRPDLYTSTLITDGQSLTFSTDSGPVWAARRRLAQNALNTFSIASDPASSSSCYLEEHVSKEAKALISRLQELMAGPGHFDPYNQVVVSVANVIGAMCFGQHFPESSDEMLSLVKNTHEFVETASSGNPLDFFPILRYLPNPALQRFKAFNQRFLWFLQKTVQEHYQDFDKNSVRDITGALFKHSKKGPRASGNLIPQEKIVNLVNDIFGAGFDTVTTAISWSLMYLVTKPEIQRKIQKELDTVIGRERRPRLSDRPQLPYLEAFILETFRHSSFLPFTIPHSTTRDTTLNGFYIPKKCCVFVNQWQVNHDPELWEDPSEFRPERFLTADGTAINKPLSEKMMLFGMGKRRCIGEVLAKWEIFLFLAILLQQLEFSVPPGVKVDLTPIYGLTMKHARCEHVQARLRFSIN

[31] = biological target: Cytochrome P450 3A4 (Homo sapiens, UniProt P08684);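 also: CYP3A4 tested as one member of a cytochrome P450 panel screen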
[32] = reduction of Shn3 3'UTR-driven luciferase in osteoblasts – cell-based, Clone20 osteoblasts, firefly luciferase, cherry-picked, dose response (AID 624132); assay type: functional;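 also: firefly luciferase luminescence from reporter carrying the Shn3 3'UTR in osteoblasts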
[33] = loss of viability in HepG2 cells – cell-based, CellTiter-Glo, cherry-picked, cytotoxicity control for Shn3 inhibitor project, dose response (AID 624134); assay type: functional
[34] = non-specific 3'UTR reporter inhibition in Clone20-Shn3RL – cell-based, Renilla luciferase, cherry-picked, counter-screen for Shn3 inhibitor project, dose response (AID 624133); assay type: functional
[35] = tested on: HEK293; test: cells; conditions: Homo sapiens
[36] = tested on: HEK293; test: cells; conditions: Homo sapiens; remark: listed apart in the source

CN1Cc2c(N3CCOCC3)nc3sc(C(=O)c4ccccc4)c(N)c3c2CC1(C)C
AC50 [1]: 32.1 µM (active)

Nc1[nH]c(C(=O)c2ccc(Br)cc2)c(-c2ccc(Cl)cc2[N+](=O)[O-])c1C(=O)NCCc1c[nH]c2ccccc12
IC50 [2]: > 69.5 µM (inactive) | IC50 [3]: 9.24 µM (active)

c1ccc(C2CNCCc3ccccc32)cc1 (stereo unspecified)
IC50 [4]: > 29.9 µM (inactive) | EC50 [5]: 1.41 µM (active) | IC50 [6]: 3.36 µM (active) | EC50 [7]: > 29.9 µM (inactive)

COC(=O)CSc1nc(COc2ccccc2)nc2ccccc12
EC50 [8]: > 112 µM (not active) | EC50 [9]: > 112 µM (not active) | IC50 [10]: 8.48 µM (active) | IC50 [11]: > 138 µM (inactive)

OC(CNCc1ccccc1)COc1ccccc1 (stereo unspecified)
AC50 [12]: > 30 µM (inactive)

COc1cccc(Nc2nc(C(C)N)cs2)n1 (stereo unspecified)
IC50 [4]: > 29.9 µM (inactive) | EC50 [5]: 1.17 µM (active) | IC50 [6]: 4.76 µM (active) | EC50 [7]: > 29.9 µM (inactive)

Cc1ccc(Cc2c(-c3ccco3)nc3ccc(Br)cn23)cc1
IC50 [10]: 8.5 µM (active) | IC50 [11]: 56.8 µM (inactive)

N#Cc1c(Cl)nc(N/N=C/c2ccccc2)c(Cl)c1Cl
EC50 [13]: 12.1 µM (active) | EC50 [14]: 6.92 µM (active) | IC50 [15]: > 69.5 µM (inactive)

C=CCN1C(=O)C2(C(C(=O)c3ccc4c(c3)OCCO4)=C(O)C(=O)N2CCCOC)c2ccccc21 (stereo unspecified)
Ki [16]: > 66.7 µM (inactive)

CCc1ccccc1NC(=O)CNC(=O)CNC(=O)c1cccs1
AC50 [12]: 25.1 µM (active)

Cc1ccsc1C1C2=C(O)CC(C)(C)CC2=Nc2ncnn21 (stereo unspecified)
Ki [16]: 12.5 µM (active)

C/C(NCc1cccnc1)=C1/C(=O)NC(=O)N(c2ccc(C)cc2)C1=O
IC50 [10]: 10.2 µM (inactive) | IC50 [11]: > 138 µM (inactive)

Cc1cccc(NC(=O)c2ccc3c(=O)n4c(nc3c2)CCCCC4)n1
IC50 [17]: > 67.5 µM (inactive) | IC50 [18]: > 0.834 µM (active)

N=C(N/N=C\c1ccc(F)cc1)N/N=C\c1ccc(F)cc1
AC50 [19]: 5.38 µM (active) | IC50 [4]: > 29.9 µM (inactive) | EC50 [5]: 1.75 µM (active) | IC50 [6]: 4.9 µM (active) | EC50 [7]: 26.1 µM (inactive)

Cc1ccc2c(CN(C)Cc3ccccc3)cc(=O)oc2c1
IC50 [17]: > 67.6 µM (inactive) | IC50 [18]: > 67.6 µM (inactive)

CCc1nc2ccc(C(=O)Nc3cc(-c4ccccc4)ccc3OC)cn2c1N(C)Cc1nccs1
IC50 [20]: > 79 µM (inactive) | AC50 [21]: 21.6 µM (active) | AC50 [22]: 51.1 µM (active) | AC50 [23]: 9.18 µM (active) | IC50 [2]: > 69.5 µM (inactive) | AC50 [24]: 18.4 µM (active) | IC50 [3]: > 69.5 µM (inactive) | AC50 [25]: 18.1 µM (active)

CC(C)(C)C(=O)Nc1nnc(SCC(=O)NCc2cccs2)s1
IC50 [26]: > 59.6 µM (inactive) | IC50 [27]: > 59.6 µM (inactive) | IC50 [28]: > 59.6 µM (inactive) | AC50 [29]: 3.16 µM (inconclusive) | AC50 [30]: 22.4 µM (inconclusive) | AC50 [31]: 25.1 µM (inconclusive)

CN(C)CCCN=c1cc(-c2ccccc2)oc2ccc(Cl)cc12
AC50 [1]: 4.38 µM (active)

CN(C)CCNC(=O)c1ccc(Cl)c2cc3ccccc3nc12
AC50 [32]: 9.85 µM (active) | AC50 [33]: 4.37 µM (active) | AC50 [34]: 24 µM (active) | AC50 [1]: 0.846 µM (active) | EC50 [35]: > 2.21 µM (active) | EC50 [36]: > 59.7 µM (inactive)
